In patent publication US11479470B2, “Three-dimensional boron-rich clusters” (The Regents of the University of California, priority 2016, dated 2022):
Entries after “also recorded” stand apart in the source; their conditions may differ.

Target: concanavalin A (ConA) (Canavalia ensiformis, UniProt P02866)
Assay: Surface plasmon resonance (Biacore T100) binding of glycosylated OCN to immobilised lectin
Details: injected at the highest mass concentration of [2l] shown (2.0 mg 1-1)
Method: ConA was covalently attached to the Au-coated sensor chip's dextran layer via conventional amide coupling, and binding between ConA and the injected analyte was measured as a change in the refractive index (RI) and expressed in response units (RU). […] (See, e.g., Kamiya, N., et al., J. Am. Chem. Soc. 129, 3816-3817 (2007), the disclosure of which is incorporated herein by reference.)

Structure (SMILES): O=C[C@H](O)[C@@H](O)[C@H](O)[C@H](O)CO [D-glucose]
- binding response to ConA (controls): minimal to no binding; also recorded: minimal binding
